In patent US20080058391A1, “NOVEL COMPOUNDS” (GLAXO GROUP LIMITED, priority 2006, published 2008):
Structures can show the parent of a compound that is named as a salt.

System: male Sprague Dawley rats
Test: Rat mustard oil model of visceral pain
Assay type: in vivo
Conditions: data combined from two studies
Method: All behavioural responses consistent with the presence of pain were determined following intra rectal injection of mustard oil in male Sprague Dawley rats. Typical behavioural responses consistent with the presence of pain following intra-colonic mustard oil injection include: arching, abdominal lifting, abdominal tensing, stretching, extending the rear leg (when lying down), raising and lowering the testicles, tip-toeing and writhing.
Male Sprague Dawley rats (130 g-160 g) were briefly sedated with 50% oxygen/50% carbon dioxide and 0.2 ml of 3% mustard oil injected into the colorectum, 1.5 cm from the anus. The anus was plugged with vaseline and animals placed in observational cages to which they had previously been acclimatised for 45 minutes prior to mustard oil injection. The number of visceral pain related behaviours, which consisted primarily of abdominal arching, were counted over a 25 minute period and the animals culled by cervical dislocation.
In separate studies, the effects of alosetron (0.1, 0.3 and 1.0 mg/kg n=10 per group), gabapentin (10, 30 and 100 mg/kg n=10 per group) and amitriptyline (3, 10 and 30 mg/kg n=9-10 per group) or vehicle (saline for alosetron and amitriptyline 10% 1-methyl-2-pyrolidone in saline for gabapentin n=10 per study) given sub cutaneously 15 minutes prior to injection of 3% mustard oil were examined on pain behaviour. Results are expressed as mean reduction in percentage of behaviours compared to vehicle treated animals and were statistically compared to vehicle treated animals using a one way ANOVA with Dunnett's comparison, p<0.05 considered significant.
The effect of the compound of Example 1 (0.1, 0.3, 1.0, 3.0, 10 and 30 mg/kg, n 9-20 per dosage) or vehicle (1% methyl cellulose, n=20) given orally 60 minutes prior to injection of mustard oil (3% mustard oil, 70% ethanol in saline) were examined on pain behaviour. The total number of visceral pain related behaviours, which consisted primarily of abdominal arching, were counted over a 25 minute period and the animals culled by cervical dislocation. Behaviours were normalised as the percentage of the vehicle group mean and expressed as mean percentage reductions. Data was combined from two studies and normalised as the percentage of the vehicle group mean for each individual study and expressed as a mean percentage reduction for both studies. Percentage reduction of behaviours compared to vehicle treated animals were analysed statistically using a one way ANOVA with Dunnett's comparison, p<0.05 considered significant.

SMILES: CC(C)(NCc1cc(-c2ccc(C(F)(F)F)cc2)ccn1)C(N)=O [Example E1, 2-Methyl-N^2-({4-[4-trifluoromethyl)phenyl]-2-pyridinyl}methyl)alaninamide hydrochloride]
- reduction in behaviours compared to vehicle treated animals (0.1 mg/kg orally 60 minutes prior to mustard oil): 16%
- reduction in behaviours compared to vehicle treated animals (0.3 mg/kg orally 60 minutes prior to mustard oil): 24%
- reduction in behaviours compared to vehicle treated animals (1.0 mg/kg orally 60 minutes prior to mustard oil): 41%
- reduction in behaviours compared to vehicle treated animals (3.0 mg/kg orally 60 minutes prior to mustard oil): 64%
- reduction in behaviours compared to vehicle treated animals (10 mg/kg orally 60 minutes prior to mustard oil): 76%
- reduction in behaviours compared to vehicle treated animals (30 mg/kg orally 60 minutes prior to mustard oil): 85%
